From ChEMBL document CHEMBL2069166, “β-Lactones Inhibit N-acylethanolamine Acid Amidase by S-Acylation of the Catalytic N-Terminal Cysteine” (ACS Med Chem Lett, 2012)
Calls of active or inactive are those of the source. The rule behind the calls is not given here.

Legend:
[1] = molecular target: T1, N-acylethanolamine-hydrolyzing acid amidase (Homo sapiens, UniProt Q02083); assay: Inhibition of human recombinant His6-tagged NAAA expressed in HEK293 cells using 10-cis-heptadecenoylethanolamide as substrate after 30 mins by UPLC/MS analysis
T1 sequence (Q02083 whole entry): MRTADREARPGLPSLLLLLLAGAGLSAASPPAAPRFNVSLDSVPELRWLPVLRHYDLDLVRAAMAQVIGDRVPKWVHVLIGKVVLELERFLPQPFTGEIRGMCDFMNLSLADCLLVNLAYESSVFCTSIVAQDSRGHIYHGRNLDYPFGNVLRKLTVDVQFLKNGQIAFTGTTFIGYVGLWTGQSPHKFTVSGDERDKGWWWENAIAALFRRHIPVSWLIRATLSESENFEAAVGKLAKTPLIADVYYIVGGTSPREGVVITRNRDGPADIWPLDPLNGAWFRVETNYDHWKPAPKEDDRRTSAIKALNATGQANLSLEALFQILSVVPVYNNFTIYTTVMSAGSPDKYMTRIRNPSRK

[2] = molecular target: T2, N-acylethanolamine-hydrolyzing acid amidase (Homo sapiens) (UniProt Q02083); assay: Binding affinity to human recombinant His6-tagged NAAA expressed in HEK293 cells assessed as formation of peptide adduct by MS/MS […] analysis; type: cell-based
T2 sequence (whole entry): T1 sequence (Q02083 whole entry)

[3] = molecular target: T3, Fatty-acid amide hydrolase 1 (Rattus norvegicus) (UniProt P97612); assay: Inhibition of FAAH in rat brain homogenate using [3H]anandamide as substrate up to 30 uM after 30 mins by liquid scintillation counting; type: tissue-based
T3 sequence (whole entry): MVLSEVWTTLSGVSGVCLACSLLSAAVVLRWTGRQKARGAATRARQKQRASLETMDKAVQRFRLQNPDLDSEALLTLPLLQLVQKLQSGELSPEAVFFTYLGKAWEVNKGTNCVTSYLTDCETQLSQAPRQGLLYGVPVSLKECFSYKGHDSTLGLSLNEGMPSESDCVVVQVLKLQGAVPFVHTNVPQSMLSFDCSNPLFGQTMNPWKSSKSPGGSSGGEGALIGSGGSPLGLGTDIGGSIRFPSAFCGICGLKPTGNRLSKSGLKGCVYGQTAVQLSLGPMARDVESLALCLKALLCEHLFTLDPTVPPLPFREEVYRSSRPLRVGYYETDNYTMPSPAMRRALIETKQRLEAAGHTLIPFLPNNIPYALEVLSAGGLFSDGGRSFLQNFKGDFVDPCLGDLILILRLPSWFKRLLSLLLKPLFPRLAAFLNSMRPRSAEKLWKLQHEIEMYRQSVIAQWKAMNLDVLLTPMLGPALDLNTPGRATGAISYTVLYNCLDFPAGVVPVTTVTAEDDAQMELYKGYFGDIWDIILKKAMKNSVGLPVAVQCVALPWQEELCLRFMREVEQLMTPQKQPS

[4] = molecular target: T4, Acid ceramidase (Homo sapiens) (UniProt Q13510); assay: Inhibition of human acid ceramidase expressed in HEK293 cells up to 30 uM using N-lauroyl- ceramide substrate by UPLC/MS analysis; type: cell-based
T4 sequence (whole entry): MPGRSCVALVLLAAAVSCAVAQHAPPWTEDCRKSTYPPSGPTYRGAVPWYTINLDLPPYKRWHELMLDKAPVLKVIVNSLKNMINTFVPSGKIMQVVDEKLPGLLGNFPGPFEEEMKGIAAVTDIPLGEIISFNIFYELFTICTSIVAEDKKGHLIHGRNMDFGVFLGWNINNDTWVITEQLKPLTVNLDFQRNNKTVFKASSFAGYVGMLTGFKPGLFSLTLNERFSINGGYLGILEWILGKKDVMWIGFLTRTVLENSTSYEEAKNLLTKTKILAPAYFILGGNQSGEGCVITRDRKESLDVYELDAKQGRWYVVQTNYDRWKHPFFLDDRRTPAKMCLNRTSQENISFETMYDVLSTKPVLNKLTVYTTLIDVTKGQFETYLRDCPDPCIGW

[5] = molecular target: T2, N-acylethanolamine-hydrolyzing acid amidase (Homo sapiens); details: HEK293, 10 to 30 nM
[6] = molecular target: T2, N-acylethanolamine-hydrolyzing acid amidase (Homo sapiens); details: HEK293, 100 nM

| IC50 [1] [nM] | Activity [2] | inhibition [3] | inhibition [4] | inhibition [5] | inhibition [6] | Compound |
| --- | --- | --- | --- | --- | --- | --- |
| 314 | Active |  |  |  |  | C[C@@H]1OC(=O)[C@@H]1NC(=O)CCCCCCc1ccccc1 |
| 7.3 |  | inactive | inactive | Active | Active | C[C@@H]1OC(=O)[C@@H]1NC(=O)OCCCCCc1ccccc1 |
